Data: patent US20070276025A1, “Indirubin-Type Compounds, Compositions, and Methods for Their Use” (priority 2003, published 2007)
Read-outs that look alike come from different tables or passages of the source.

What was measured:
[1] = test system: GSK-3α (Tyr276) / GSK-3β (Tyr216); experiment: Tyrosine phosphorylation of GSK-3 in SH-SY5Y cells (Western blot); format: cell-based, human; conditions: 1 μM, 12 hr
Description: GSK-3α and GSK-3β activity is enhanced by the phosphorylation of a specific tyrosine residue (Tyr276 and Tyr216, respectively) (Hughes et al. (1993) EMBO J. 12: 803-808; Dajani et al. (2003) EMBO J. 22: 494-501). The tyrosine kinase responsible for this phosphorylation in mammals is unknown, but there is some evidence that it indirectly depends on GSK-3 activity (Bhat et al. (2000) Proc. Natl. Acad. Sci. U.S.A. 97: 11074-11079; Shaw et al. (1997) FEBS Lett. 416: 307-311). […] SH-SY5Y cells were exposed to IO, MeIO, BIO and MeBIO for 12 hr and the phosphorylation of Tyr276 (GSK-3α) and Tyr216 (GSK-3β) was estimated by Western blotting with phospho-specific antibodies. […] This was accompanied by an increased level in total GSK-3β, total β-catenin, and dephospho-&catenin.

[2] = test system: Xenopus laevis embryos; experiment: Maternal Wnt pathway activation in Xenopus laevis embryos (phenotype, RT-PCR of animal caps); format: in vivo; conditions: for embryo phenotype (anteriorization): BIO 5-50 μM, MeBIO 50 μM, LiCl 0.3 M, treated before stage 8, tadpole stage
Description: Xenopus laevis embryos obtained by in vitro fertilization were cultured in 0.1×MMR and staged (Nieuwkoop & Faber (1967) Normal table of Xenopus Laevis (North Holland Publishing Co, Amsterdam, The Netherlands)). […] For experiments with BIO, the reagent was added to the indicated final concentrations at the 4 cell stage and washed away at stage 8. Embryos were subsequently allowed to develop to tadpole stage. RNA injections were performed at 2-4 cell stage with the indicated amounts of in vitro transcribed RNA in a […] volume. Animal caps were dissected at blastula (stage 9) and cultured to neurula (stage 18) for RT-PCR analysis-. The RNA expression vectors were pCS2+DN Xtcf-3, encoding amino acids 88-553 of Xtcf-3 (Vonica et al. (2000) Dev. Biol. 217: 230-243), MTPA2 (Zeng et al. […] RT-PCR was performed as previously described (Chang et al. (1997) Development 124: 827-837), with the following oligonucleotides: for ODC sense [NT] and antisense 5° [NT] 3'; for nrp1 sense [NT] and antisense [NT]; for XAG1 sense [NT] and antisense 5° [NT] 3'; for en2 sense 5° [NT] 3' and antisense [NT]; for Xhoxb9 sense [NT] and antisense [NT]; for chordin sense 5° [NT] 3' and antisense [NT]. Phenotypes of embryos treated with BIO or LiCl were compared (FIG. 8B-G). […] The Wnt pathway can ectopically induce dorsal genes, like the direct Wnt target siamois ([…] et al. (1996) Development 122: 3055-3065), and the Spemann organizer marker and siamois target chordin (Kessler (1997) Proc. Natl. Acad. Sci. U.S.A. 94: 13017-22). […] Another outcome of ectopic Wnt pathway activation in Xenopus is the indirect induction of neural tissue in animal cap explants (Baker et al. (1999) Genes Dev. 13: 3149-3159). Explants from embryos treated with LiCl (FIG. 8I, lanes 4, 5), BIO (lanes 6, 7), or injected with RNA for the neuralizing factor noggin (lane 3), were compared by RT-PCR for various neural and anterior markers.

[3] = test system: AhR; experiment: AhR nuclear translocation in Hepa-1 and ARNT mutant cells (immunofluorescence); format: cell-based, mouse; conditions: 25 μM, 90 min, Hepa-1 wild-type and ARNT mutant cells
[4] = test system: 5L (AhR +/+) hepatoma cells; experiment: Cell viability MTT assay, 5L cells; format: cell-based, mouse; conditions: range of concentrations, 24 and 48 hr
[5] = test system: BP8 (AhR −/−) hepatoma cells; experiment: Cell viability MTT assay, BP8 cells; format: cell-based, mouse; conditions: range of concentrations, 24 and 48 hr
[6] = test system: 5L (AhR +/+) hepatoma cells; experiment: FACS cell cycle analysis, 5L cells; format: cell-based, mouse; conditions: 10 μM indirubins or 100 nM TCDD, 24 hr
[7] = test system: p27^KIP1 in 5L (AhR +/+) cells; experiment: p27KIP1 expression by Western blotting, 5L cells; format: cell-based, mouse; conditions: 10 μM indirubins or 0.1 μM TCDD, 24 hr
[8] = Solubility (qualitative remark); conditions: relative to parent indirubins / 3′-oximes
[9] = test system: GSK-3; experiment: β-catenin phosphorylation on GSK-3 specific sites in COS-1 cells (Western blot); conditions: 5 μM indirubins or 20 mM LiCl, 24 hrs
[10] = test system: GSK-3; experiment: β-catenin stabilization in AhR- or ARNT-deficient Hepa cell lines (Western blot); conditions: 10 μM BIO, 50 μM MeBIO, 24 hrs
[11] = target: GSK-3α/β; experiment: GSK-3α/β kinase assay (GS-1 peptide, 15 μM ATP); format: biochemical, porcine
[12] = target: CDK1/cyclin B; experiment: CDK1/cyclin B kinase assay (histone H1, 15 μM ATP); format: biochemical, starfish (Marthasterias glacialis)
[13] = target: CDK5/p25 (Homo sapiens, UniProt Q00535); experiment: CDK5/p25 kinase assay (histone H1, 15 μM ATP); format: biochemical, mammalian; conditions: read-out: IC50 CDK5/p25
[14] = test system: BP8 (AhR −/−) hepatoma cells; experiment: FACS cell cycle analysis, BP8 cells; format: cell-based, mouse; conditions: 10 μM indirubins or 100 nM TCDD, 24 hr
Description: Flow cytometry analysis (Coulter EPIX XL2, Beckman, Calif., USA) of cellular DNA content was performed on ethanol-fixed cell suspensions after ribonuclease A III treatment (Sigma) and propidium iodide (Sigma) staining, as previously described (French et al. (1985) Cytometry 6: 47-53). Percentages of cells in G0/G1, S and G2/M phases of cell cycle were then calculated on the basis of DNA distribution histograms provided by the software manufacturer.
Both 5L and BP8 cell lines were treated with 10 μM IO, MeIO, BIO, MeBIO or 100 nM TCDD for 24 hr.

[15] = target: AhR (Homo sapiens, UniProt P35869)
[16] = target: T1, AhR (Mus musculus, UniProt P30561); conditions: read-out: EC50 AhR (hepatoma cell line); Table 4; EGFP at 24 hours
T1 sequence (P30561 1-848): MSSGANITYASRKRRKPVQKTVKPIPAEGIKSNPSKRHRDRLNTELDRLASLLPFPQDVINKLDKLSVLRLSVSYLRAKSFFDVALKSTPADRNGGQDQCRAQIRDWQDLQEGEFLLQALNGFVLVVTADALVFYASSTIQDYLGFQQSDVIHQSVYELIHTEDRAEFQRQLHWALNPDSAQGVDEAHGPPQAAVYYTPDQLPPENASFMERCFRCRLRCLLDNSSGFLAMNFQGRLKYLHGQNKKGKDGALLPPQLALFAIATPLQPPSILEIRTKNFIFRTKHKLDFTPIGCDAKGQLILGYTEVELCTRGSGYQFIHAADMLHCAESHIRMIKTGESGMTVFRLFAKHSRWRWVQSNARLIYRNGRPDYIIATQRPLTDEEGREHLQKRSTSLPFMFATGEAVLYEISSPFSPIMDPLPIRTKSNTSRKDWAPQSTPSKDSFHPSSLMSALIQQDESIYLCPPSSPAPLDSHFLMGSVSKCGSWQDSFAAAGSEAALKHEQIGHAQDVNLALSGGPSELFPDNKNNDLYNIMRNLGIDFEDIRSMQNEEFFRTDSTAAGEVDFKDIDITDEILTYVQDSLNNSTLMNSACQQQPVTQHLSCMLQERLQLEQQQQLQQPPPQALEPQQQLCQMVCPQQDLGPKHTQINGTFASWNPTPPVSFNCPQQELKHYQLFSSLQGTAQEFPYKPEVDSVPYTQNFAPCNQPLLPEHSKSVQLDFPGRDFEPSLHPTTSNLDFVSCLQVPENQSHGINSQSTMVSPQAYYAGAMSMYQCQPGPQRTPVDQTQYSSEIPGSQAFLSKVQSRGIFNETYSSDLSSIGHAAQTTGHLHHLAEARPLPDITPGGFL

[17] = target: CDK5/p35 (Homo sapiens, UniProt Q00535); set-up: made in house; conditions: Hoessel et al. (1999); cited from earlier work
Sequence of CDK5/p35 (Q00535 whole entry, species assumed): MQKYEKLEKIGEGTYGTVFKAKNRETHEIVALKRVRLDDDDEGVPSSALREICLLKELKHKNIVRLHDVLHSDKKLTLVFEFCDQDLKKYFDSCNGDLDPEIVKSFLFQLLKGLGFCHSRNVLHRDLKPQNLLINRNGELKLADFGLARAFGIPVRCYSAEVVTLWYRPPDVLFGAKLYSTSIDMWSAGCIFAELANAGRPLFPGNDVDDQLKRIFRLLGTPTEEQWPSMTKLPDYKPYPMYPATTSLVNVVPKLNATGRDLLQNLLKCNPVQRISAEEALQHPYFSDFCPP
Sequence of CDK5/p35 (Q15078 whole entry partner, species assumed): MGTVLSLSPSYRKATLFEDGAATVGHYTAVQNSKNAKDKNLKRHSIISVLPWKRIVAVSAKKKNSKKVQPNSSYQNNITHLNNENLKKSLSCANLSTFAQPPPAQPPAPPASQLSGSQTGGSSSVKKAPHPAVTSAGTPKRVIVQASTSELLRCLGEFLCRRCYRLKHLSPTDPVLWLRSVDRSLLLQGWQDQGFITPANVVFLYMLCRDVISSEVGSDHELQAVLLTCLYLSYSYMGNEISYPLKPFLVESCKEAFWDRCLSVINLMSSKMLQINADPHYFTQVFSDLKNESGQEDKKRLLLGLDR

Sequence of CDK5/p25 (Q00535 whole entry, species assumed): as the sequence (Q00535 whole entry, species assumed) above
Sequence of CDK5/p25 (Q15078 99-307 partner limits assumed, species assumed): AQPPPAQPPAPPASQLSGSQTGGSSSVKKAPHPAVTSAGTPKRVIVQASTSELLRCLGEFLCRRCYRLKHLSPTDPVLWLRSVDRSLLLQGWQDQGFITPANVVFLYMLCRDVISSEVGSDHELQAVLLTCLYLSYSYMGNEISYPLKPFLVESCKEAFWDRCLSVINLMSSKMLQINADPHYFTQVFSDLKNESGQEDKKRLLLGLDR
Sequence of AhR (Homo sapiens, UniProt P35869) (P35869 11-848): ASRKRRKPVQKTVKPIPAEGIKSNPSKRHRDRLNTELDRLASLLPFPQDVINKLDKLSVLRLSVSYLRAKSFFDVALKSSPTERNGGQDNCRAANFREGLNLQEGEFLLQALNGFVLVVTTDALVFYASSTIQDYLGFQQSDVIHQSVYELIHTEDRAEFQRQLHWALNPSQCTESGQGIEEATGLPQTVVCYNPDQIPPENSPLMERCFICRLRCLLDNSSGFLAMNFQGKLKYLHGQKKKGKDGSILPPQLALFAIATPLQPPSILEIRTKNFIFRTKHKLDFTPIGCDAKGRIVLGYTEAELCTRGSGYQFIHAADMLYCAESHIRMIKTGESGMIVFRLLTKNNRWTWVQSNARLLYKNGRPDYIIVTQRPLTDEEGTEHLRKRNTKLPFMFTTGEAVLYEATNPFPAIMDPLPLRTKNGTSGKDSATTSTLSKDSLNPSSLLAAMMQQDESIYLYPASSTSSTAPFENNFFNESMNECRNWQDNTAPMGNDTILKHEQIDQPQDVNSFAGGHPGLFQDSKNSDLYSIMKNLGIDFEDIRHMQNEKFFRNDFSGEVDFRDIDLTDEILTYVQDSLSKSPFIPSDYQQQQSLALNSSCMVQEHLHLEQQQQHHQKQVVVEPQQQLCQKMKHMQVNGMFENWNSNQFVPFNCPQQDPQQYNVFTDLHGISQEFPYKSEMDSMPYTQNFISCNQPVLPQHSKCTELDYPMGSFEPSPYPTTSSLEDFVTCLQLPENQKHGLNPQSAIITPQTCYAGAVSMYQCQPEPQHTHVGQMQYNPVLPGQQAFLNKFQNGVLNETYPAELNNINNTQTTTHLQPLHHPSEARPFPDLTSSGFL
Sequence of AhR (Homo sapiens, UniProt P35869) (P27540 whole entry partner): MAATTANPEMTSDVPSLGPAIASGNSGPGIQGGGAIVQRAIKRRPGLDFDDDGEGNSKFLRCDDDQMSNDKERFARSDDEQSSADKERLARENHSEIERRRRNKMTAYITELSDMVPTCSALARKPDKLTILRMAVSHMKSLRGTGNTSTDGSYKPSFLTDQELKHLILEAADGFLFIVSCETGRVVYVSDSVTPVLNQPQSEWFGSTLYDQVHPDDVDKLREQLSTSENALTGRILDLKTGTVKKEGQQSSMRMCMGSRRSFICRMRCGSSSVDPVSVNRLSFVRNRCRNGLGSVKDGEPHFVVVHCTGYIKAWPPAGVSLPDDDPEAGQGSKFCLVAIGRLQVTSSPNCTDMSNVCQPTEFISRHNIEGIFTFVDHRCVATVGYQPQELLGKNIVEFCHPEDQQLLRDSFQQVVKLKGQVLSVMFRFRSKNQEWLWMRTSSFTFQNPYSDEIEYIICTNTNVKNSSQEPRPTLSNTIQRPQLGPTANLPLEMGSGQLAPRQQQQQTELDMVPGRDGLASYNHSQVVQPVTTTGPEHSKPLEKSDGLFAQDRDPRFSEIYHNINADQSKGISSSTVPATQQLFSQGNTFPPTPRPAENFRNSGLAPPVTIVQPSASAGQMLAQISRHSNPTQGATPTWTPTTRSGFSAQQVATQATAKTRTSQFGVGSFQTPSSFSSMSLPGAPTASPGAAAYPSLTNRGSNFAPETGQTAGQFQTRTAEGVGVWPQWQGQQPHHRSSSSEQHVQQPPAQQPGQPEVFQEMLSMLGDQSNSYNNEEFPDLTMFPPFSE

Row | Structure (SMILES) | level of tyrosine phosphorylation of both GSK-3 isoforms [1] | embryo phenotype (anteriorization) [2] | nuclear translocation of AhR [3] | survival of 5L cells (MTT) [4] | survival of BP8 cells (MTT) [5] | accumulation of 5L cells in G1 phase [6] | p27^KIP1 expression in 5L cells [7] | unphosphorylated β-catenin level [9] | β-catenin stabilization [10] | further results
1 | O=C1Nc2cc(Br)ccc2/C1=C1/Nc2ccccc2/C1=N\O [7a] | dramatically reduced | phenocopies the LiCl effect in a dose-dependent manner | triggered ARNT-independent nuclear redistribution of AhR | equally sensitive to IO and BIO | equally sensitive to IO and BIO | modest (but detectable) | modest, but detectable increase | major increase | triggered a robust β-catenin stabilization in both cell lines | induction of siamois and chordin in animal cap explants (RT-PCR) ([2]; Li+ 0.3 M, BIO 50 μM): shows induction of both genes; effect on anterior markers otx2 and xag1 in animal cap explants (RT-PCR) ([2]; even at the lowest concentration tested (5 μM)): strongest effect on anterior markers; solubility (in words) [8]: increased solubility
2 | CN1C(=O)C(=C2Nc3ccccc3C2=NO)c2ccc(Br)cc21 [13c, 6-Bromo-1-methylindirubin-3′-oxime] | None of these changes were observed | remains without effect | caused redistribution of AhR to the nucleus | apparently not affected | apparently not affected | very striking accumulation | very effective p27^KIP1 inducers | neither the kinase-inactive MeBIO nor IO, led to a major increase | inactive | IC50 ([11]; Table 1, read-out: IC50 GSK-3 α/β): 44 µM; IC50 ([11]; Table 4, read-out: IC50 GSK-3): 44 µM; IC50 ([11]; Table 5, read-out: IC50 GSK-3α/β): > 100 µM; IC50 ([12]; Table 4, read-out: IC50 CDK1/cycin B): 92 µM; IC50 ([12]; Table 5, read-out: IC50 CDK1/cyclin B): 92 µM; IC50 ([13]; Table 1): > 100 µM; IC50 ([13]; Table 5): > 100 µM; accumulation of BP8 cells in G1 phase [14]: but not of AhR −/− cells (BP8); EC50 [15]: 20 nM; EC50 [16]: 93 nM
3 | O=C1Nc2ccc(S(=O)(=O)O)cc2/C1=C1/Nc2ccccc2C1=O [I5S, indirubin-5-sulphonate] |  |  |  |  |  |  |  |  |  | IC50 [17]: 60 nM
